20 compounds from patent US9271971B2, “Pyrido[3,4-B]indoles and methods of use” (Medivation Technologies, Inc., priority 2009, dated 2016) can be followed below.

The target of experiment [1] is T1, human recombinant adrenergic α2A receptor (Homo sapiens, UniProt P08913).
T1 construct: expressed in transfected cells; host or cells: insect Sf9 cells
T1 sequence (P08913 1-465): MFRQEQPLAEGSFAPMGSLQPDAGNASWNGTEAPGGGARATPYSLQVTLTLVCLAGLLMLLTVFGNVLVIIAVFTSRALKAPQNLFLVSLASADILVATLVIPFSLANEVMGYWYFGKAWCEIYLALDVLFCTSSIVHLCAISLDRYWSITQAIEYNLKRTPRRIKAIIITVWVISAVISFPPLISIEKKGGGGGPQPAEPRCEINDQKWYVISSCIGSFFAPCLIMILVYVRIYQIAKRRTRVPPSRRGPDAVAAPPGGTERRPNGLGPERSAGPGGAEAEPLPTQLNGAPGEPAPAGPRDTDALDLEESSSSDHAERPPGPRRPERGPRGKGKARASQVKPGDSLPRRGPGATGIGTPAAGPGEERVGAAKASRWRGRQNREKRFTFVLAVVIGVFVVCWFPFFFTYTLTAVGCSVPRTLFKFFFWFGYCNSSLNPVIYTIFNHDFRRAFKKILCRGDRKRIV
Put plainly: Adrenergic α2A radioligand binding assay. The conditions noted are these: [3H]MK-912 specific binding; for inhibition at 0.1 µM: read-out: Percent Inhibition of ligand binding, Adrenergic (0.1 μM ligand conc.) α2A; for inhibition at 1 µM: read-out: Percent Inhibition of ligand binding, Adrenergic (1 μM ligand conc.) α2A. How it is done: To evaluate in radioligand binding assays the activity of compounds of the invention, human recombinant adrenergic α2A receptor expressed in insect Sf9 cells [Uhlen, S et al. J. Pharmacol. Exp. Ther. (1994), 271:1558] in a modified Tris-HCl buffer (50 mM Tris-HCl, pH 7.4, 12.5 mM MgCl2, 2 mM EDTA) was used. Compounds of invention were incubated with 1 nM [^3H]MK-912 for 60 min. at 25° C. MK912 was (2S-trans)-1,3,4,5′,6,6′,7,12b-octahydro-1′,3′-dimethyl-spiro[2H-benzofuro[2,3-a]quinolizine-2,4′(1′H)-pyrimidin]-2′(3′H)-one hydrochloride Non-specific binding was estimated in the presence of 10 μM WB-4101 (2-(2,6-dimethoxyphenoxyethyl)aminomethyl-1,4-benzodioxane hydrochloride). Receptor proteins were filtered and washed, the filters were then counted to determine [^3H]MK-912 specifically bound. Compounds were screened at 1 μM or lower, using 1% DMSO as vehicle. Compounds of the invention were tested in this biochemical assay. Biochemical assay results for representative compounds were presented as the percent inhibition of specific binding in Table 3.

In experiment [2] the target is T2, human recombinant serotonin (5-Hydroxytryptamine) 5-HT6 receptor (Homo sapiens, UniProt P50406).
T2 construct: expressed in transfected cells; host or cells: human HeLa cells
T2 sequence (P50406 whole entry): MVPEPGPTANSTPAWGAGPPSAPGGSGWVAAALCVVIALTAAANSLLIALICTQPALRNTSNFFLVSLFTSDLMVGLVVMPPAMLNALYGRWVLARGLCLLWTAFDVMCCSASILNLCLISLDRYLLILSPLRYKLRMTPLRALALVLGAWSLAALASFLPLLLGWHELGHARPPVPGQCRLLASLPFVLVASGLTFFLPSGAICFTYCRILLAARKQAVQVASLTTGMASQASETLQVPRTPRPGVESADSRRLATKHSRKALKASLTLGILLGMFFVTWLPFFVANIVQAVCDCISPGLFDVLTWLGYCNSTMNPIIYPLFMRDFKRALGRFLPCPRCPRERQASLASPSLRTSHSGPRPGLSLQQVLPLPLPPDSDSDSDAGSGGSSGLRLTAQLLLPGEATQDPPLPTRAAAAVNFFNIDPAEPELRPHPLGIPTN
Put plainly: Serotonin 5-HT6 radioligand binding assay. The conditions noted are these: [3H]LSD specific binding; for inhibition at 1 µM: read-out: Percent Inhibition of ligand binding, Serotonin (1 μM ligand concentration) 5-HT6. As to the method: To evaluate in radioligand binding assays the activity of compounds of the invention, human recombinant serotonin (5-Hydroxytryptamine) 5-HT6 receptor expressed in human HeLa cells [Monsma, F. J. Jr et al., Mol. Pharmacol. (1993), 43:320] in a modified Tris-HCl buffer (50 mM Tris-HCl, pH 7.4, 150 mM NaCl, 2 mM Ascorbic Acid, 0.001% BSA) was used. Compounds of the invention were incubated with 1.5 nM [3H]Lysergic acid diethylamide (LSD) for 120 min. at 37° C. Non-specific binding was estimated in the presence of 5 μM Serotonin (5-HT). Receptor proteins were filtered and washed, the filters were then counted to determine[3H]LSD specifically bound. Compounds were screened at 1 μM or lower, using 1% DMSO as vehicle. Biochemical assay results are presented as the percent inhibition of specific binding in Table 4.

For experiment [3], the target named is T3, human recombinant histamine H2 receptor (Homo sapiens, UniProt P25021).
T3 construct: expressed in transfected cells; host or cells: Chinese hamster ovary (CHO) K1 cells
T3 sequence (P25021 whole entry): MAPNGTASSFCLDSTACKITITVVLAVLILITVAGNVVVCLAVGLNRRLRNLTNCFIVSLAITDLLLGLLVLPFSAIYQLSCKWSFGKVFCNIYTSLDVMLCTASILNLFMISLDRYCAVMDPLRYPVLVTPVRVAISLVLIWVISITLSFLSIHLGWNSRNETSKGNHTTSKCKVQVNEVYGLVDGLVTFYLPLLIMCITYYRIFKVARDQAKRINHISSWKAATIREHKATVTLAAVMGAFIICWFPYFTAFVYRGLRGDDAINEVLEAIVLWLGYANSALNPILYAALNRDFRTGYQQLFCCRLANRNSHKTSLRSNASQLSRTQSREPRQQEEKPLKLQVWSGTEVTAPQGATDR
Put plainly: Histamine H2 radioligand binding assay. To be noted: [125I]Aminopotentidine specific binding; for inhibition at 1 µM: read-out: Percentage Inhibition, Histamine Binding (1 μM) H2. As to the method: To evaluate in radioligand binding assays the activity of compounds of the invention, human recombinant histamine H2 receptor expressed in Chinese hamster ovary (CHO) K1 cells [Ruat, M., Proc. Natl. Acad. Sci. USA. (1990), 87(5):1658] in a 50 mM Phosphate buffer, pH 7.4 was used. Compounds of the invention were incubated with 0.1 nM [^125I]Aminopotentidine for 120 min. at 25° C. Non-specific binding was estimated in the presence of 3 μM Tiotidine. Receptor proteins were filtered and washed, the filters were then counted to determine [^125I]Aminopotentidine specifically bound. Compounds were screened at 1 μM or lower, using 1% DMSO as vehicle. Biochemical assay results are presented as the percent inhibition of specific binding in Table 2.

For experiment [4], the target named is T4, human recombinant adrenergic α1D receptor (Homo sapiens, UniProt P25100).
T4 construct: expressed in transfected cells; host or cells: human embryonic kidney (HEK-293) cells
T4 sequence (P25100 1-572): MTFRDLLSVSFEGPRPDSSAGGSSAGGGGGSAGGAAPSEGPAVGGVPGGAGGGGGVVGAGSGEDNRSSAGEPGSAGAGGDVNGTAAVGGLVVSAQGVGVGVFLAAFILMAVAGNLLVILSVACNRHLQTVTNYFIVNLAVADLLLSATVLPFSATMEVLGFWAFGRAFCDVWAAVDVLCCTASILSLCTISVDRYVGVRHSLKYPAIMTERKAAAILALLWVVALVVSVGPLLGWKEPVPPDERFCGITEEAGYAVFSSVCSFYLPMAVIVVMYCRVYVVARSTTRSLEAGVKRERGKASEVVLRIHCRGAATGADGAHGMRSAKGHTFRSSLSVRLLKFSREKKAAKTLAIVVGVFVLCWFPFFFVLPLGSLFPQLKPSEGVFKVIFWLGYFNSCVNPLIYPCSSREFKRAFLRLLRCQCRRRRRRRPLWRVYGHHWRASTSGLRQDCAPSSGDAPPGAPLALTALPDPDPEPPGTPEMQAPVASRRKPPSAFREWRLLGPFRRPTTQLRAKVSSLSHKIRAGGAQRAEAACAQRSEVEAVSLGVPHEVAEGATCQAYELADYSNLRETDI
Put plainly: Adrenergic α1D radioligand binding assay. To be noted: [3H]Prozosin specific binding; for inhibition at 0.1 µM: read-out: Percent Inhibition of ligand binding, Adrenergic (0.1 μM ligand conc.) α1D; for inhibition at 1 µM: read-out: Percent Inhibition of ligand binding, Adrenergic (1 μM ligand conc.) α1D. As to the method: To evaluate in radioligand binding assays the activity of compounds of the invention, human recombinant adrenergic α1D receptor expressed in human embryonic kidney (HEK-293) cells [Kenny, B. A. et al. Br. J. Pharmacol. (1995), 115(6):981] in a 50 mM Tris-HCl buffer, pH 7.4, was used. Compounds of invention were incubated with 0.6 nM [^3H]Prozosin for 60 min. at 25° C. Non-specific binding was estimated in the presence of 10 μM phentolamine. Receptor proteins were filtered and washed, the filters were then counted to determine [^3H]Prozosin specifically bound. Compounds were screened at 1 μM or lower, using 1% DMSO as vehicle. Compounds of the invention were tested in this biochemical assay. Biochemical assay results for representative compounds were presented as the percent inhibition of specific binding in Table 3.

Structures are written as SMILES.

With `C/C(=C\n1c2c(c3cc(C)ccc31)C1CCN(C2)C1)c1ccncc1` (stereo not shown) [Compound 44], the figures for the inhibition at 0.1 µM in experiment [1] and in experiment [4] were -5% and 8%, respectively. Moreover, the results for the inhibition at 1 µM in experiment [2] and in experiment [3] were 97% and -3%, respectively.
In the case of `Cc1ccc2c(c1)c1c(n2CCc2ccncc2)CN2CCC1C2` (stereo not shown) [Compound 30], the inhibition at 1 µM stood at 84% in experiment [1] (1 μM), 33% in experiment [2], 18% in experiment [3] and 40% in experiment [4].
In the case of `C/C(=C\n1c2c(c3cc(C)ccc31)C1CCN(C2)C1)c1ccc(Cl)cc1Cl` (stereo not shown) [Compound 34], the “Percent Inhibition of ligand binding, Adrenergic (1 μM ligand conc.) α2A” value in experiment [1] (1 μM) was 48%. In experiment [2], the “Percent Inhibition of ligand binding, Serotonin (1 μM ligand concentration) 5-HT6” value was 21%. In addition, the “Percentage Inhibition, Histamine Binding (1 μM) H2” value in experiment [3] (1 µM) stood at 40%. In addition, the “Percent Inhibition of ligand binding, Adrenergic (1 μM ligand conc.) α1D” value in experiment [4] is reported as 11%.
`Cc1ccc2c(c1)c1c(n2CCc2ccccn2)CN2CCC1C2` (stereo not shown) [Compound 11]: the inhibition at 1 µM was -15% in experiment [1] (1 μM), 20% in experiment [2], -2% in experiment [3] and 26% in experiment [4].
For `COc1ccc(/C(C)=C/n2c3c(c4cc(C)ccc42)C2CCN(C3)C2)cc1F` (stereo not shown) [Compound 41], the values for the inhibition at 1 µM in experiment [2] and in experiment [3] were 48% and 24%, respectively.
Consider `Cc1ccc2c(c1)c1c(n2C(=O)Cc2ccc(F)cc2)CN2CCC1C2` (stereo not shown) [Compound 43], for which the inhibition at 1 µM in experiment [2] and in experiment [3] was 7% throughout.
On to `Cc1ccc2c(c1)c1c(n2C#Cc2ccc(Cl)cc2)CN2CCC1C2` (stereo not shown) [Compound 35], for which the values for the inhibition at 1 µM in experiment [2] and in experiment [3] were 12% and 19%, respectively.
In the case of `Cc1ccc2c(c1)c1c(n2CC(=O)N2CCC(C)CC2)CN2CCC1C2` (stereo not shown) [Compound 25], the inhibition at 1 µM is -7% in experiment [1] (1 μM), -2% in experiment [2], -4% in experiment [3] and -1% in experiment [4].
Regarding `C/C(=C\n1c2c(c3cc(C)ccc31)C1CCN(C2)C1)c1ccccc1F` (stereo not shown) [Compound 38], the values for the inhibition at 0.1 µM in experiment [1] and in experiment [4] were 3% and -3%, respectively. The inhibition at 1 µM in experiment [2] was found to be 58%; in experiment [3] it was 7%.
As to `C/C(=C\n1c2c(c3cc(C)ccc31)C1CCN(C2)C1)c1ccc(F)c(F)c1` (stereo not shown) [Compound 39], the inhibition at 1 µM in experiment [2] was found to be 81%; in experiment [3], 20%.
Turning to `C/C(=C\n1c2c(c3cc(C)ccc31)C1CCN(C2)C1)c1ccc(Cl)cc1Cl` (stereo not shown) [Compound 33], the inhibition at 0.1 µM is 13% in experiment [1] and -6% in experiment [4]. In addition, the inhibition at 1 µM worked out at 66% in experiment [1] (1 μM), 35% in experiment [2] and 35% in experiment [3]. In experiment [4], the “Percent Inhibition of ligand binding, Adrenergic (1 μM ligand conc.) α1D” value came to 28%.
In the case of `Cc1ccc2c(c1)c1c(n2C(=O)Cc2ccc(Cl)cc2)CN2CCC1C2` (stereo not shown) [Compound 36], the inhibition at 0.1 µM in experiment [1] is 24%; in experiment [4], -2%. Besides, the inhibition at 1 µM amounted to 38% in experiment [2] and 20% in experiment [3].
Regarding `C/C(=C\n1c2c(c3cc(C)ccc31)C1CCN(C2)C1)c1ccc(F)cc1` (stereo not shown) [Compound 22], the inhibition at 1 µM in experiment [1] (1 μM) stood at 93%; in experiment [2], 102%; in experiment [3] it was 15%; in experiment [4] it was 81%.
For the compound `COc1ccc(/C(C)=C/n2c3c(c4cc(C)ccc42)C2CCN(C3)C2)cc1` (stereo not shown) [Compound 45], the inhibition at 0.1 µM in experiment [1] is 4%; in experiment [4] it was -1%. The values for the inhibition at 1 µM in experiment [2] and in experiment [3] were 80% and 21%, respectively.
Regarding `C/C(=C\n1c2c(c3cc(C)ccc31)C1CCN(C2)C1)c1ccc(Cl)cc1` (stereo not shown) [Compound 32], the inhibition at 0.1 µM in experiment [1] is 45%; in experiment [4] it was 9%. The inhibition at 1 µM was 96% in experiment [1] (1 μM), 97% in experiment [2], 82% in experiment [3] and 80% in experiment [4].
Take `Cc1ccc2c(c1)c1c(n2CC(=O)NC2CCCCC2)CN2CCC1C2` (stereo not shown) [Compound 23]: the inhibition at 1 µM in experiment [1] (1 μM) is -13%; in experiment [2] it was 4%; in experiment [3], -3%; in experiment [4], 18%.
With `Cc1ccc(C(O)Cn2c3c(c4cc(C)ccc42)C2CCN(C3)C2)cc1` (stereo not shown) [Compound 5], the inhibition at 1 µM in experiment [1] (1 μM) came to 44%; in experiment [2], 14%; in experiment [3], 4%; in experiment [4], 34%.
For `C/C(=C\n1c2c(c3cc(C)ccc31)C1CCN(C2)C1)c1cccnc1` (stereo not shown) [Compound 42], the inhibition at 1 µM in experiment [2] was found to be 26%; in experiment [3], 1%.
For `C/C(=C/n1c2c(c3cc(C)ccc31)C1CCN(C2)C1)c1ccccc1F` (stereo not shown) [Compound 37], the inhibition at 1 µM in experiment [2] came to 70%; in experiment [3], 22%.
On to `C/C(=C\n1c2c(c3cc(C)ccc31)C1CCN(C2)C1)c1ccc(Cl)c(Cl)c1` (stereo not shown) [Compound 40], for which the inhibition at 1 µM in experiment [2] stood at 12%; in experiment [3], 39%.
